Common to all, as to assay type: cell-based, Mycobacterium smegmatis
Assay [1] relates to M. smegmatis ΔrrnB (bacterial ribosomes). The assay can be described thus: MIC, recombinant M. smegmatis with bacterial (wild-type) ribosomes. The settings on record: 72 h at 37° C. From the text: (§1) The strain used for introduction/selection of mutational alterations was a genetically modified derivative of Mycobacterium smegmatis carrying a single functional chromosomal rRNA operon (Sander et al. Mol. Microbiol. 1996, 22: 841-848). This strain, termed M. smegmatis rrn^−, allowed for the selection of mutational rRNA gene alterations using a plasmid carrying the rRNA gene with the respective mutational alteration.)
(§2) The rRNA gene carried on the plasmid encodes either the complete rRNA operon (Prammananan et al. Antimicrob. Agents Chemother. 1999, 43: 447-453) or a non-functional rRNA gene fragment of approximately 1.0 kb (Pfister et al. Antimicrob. Agents Chemother. 2003, 47: 1496-1502). PCR-mutagenesis in vitro was used to generate the mutagenized rRNA gene fragment. In the case of a partial rRNA gene fragment the mutagenized rRNA gene fragment was cloned into vectors pMV261 or pMV361 (Sander et al. Mol. Microbiol. 2002, 46: 1295-1304; Pfister et al. Antimicrob. Agents Chemother. 2003, 47: 1496-1502) to result in vectors carrying a partial rRNA gene fragment of approximately 1.0 kb with the mutational alteration introduced. In the case of plasmids carrying the complete rRNA operon the mutagenized rRNA gene fragment obtained by PCR was cloned into vectors pMV361 rRNA or pMV261 rRNA using appropriate restriction sites (Prammananan et al. Antimicrob. Agents Chemother. 1999, 43: 447-453). Vectors pMV361 rRNA and pMV261 rRNA carried a complete copy of the rRNA operon from M. smegmatis (Sander et al. Mol. Microbiol. 1997, 26: 469-480). Introduction of mutations into the plasmid encoded rRNA was confirmed by sequencing.
(§3) The single rRNA allelic derivative of M. smegmatis, i.e. M. smegmatis rrn, was used for transformation of the plasmids. The strain was made electro-competent and transformed according to standard techniques and as described previously (Sander et al. Mol. Microbiol. 1997, 26: 469-484). Following primary selection, the plasmid-encoded mutational rRNA gene alteration was transferred into the single chromosomal rRNA operon by means of RecA-mediated homologous recombination (Prammananan at al. Antimicrob. Agents Chemother. 1999, 43: 447-453). Introduction of the mutational rRNA gene alteration into the single functional chromosomal rRNA operon by gene conversion was confirmed by sequence determination.
(§4) Ribosomal drug susceptibility was studied by determining the minimal inhibitory concentrations, as described in detail in Pfister et al. 2003 and 2005 (see above).
(§5) The recombinants carrying the respective mutational alterations in the functional rRNA operon were colony-purified and subjected to determinations of minimal inhibitory concentrations (MIC) to determine ribosomal drug susceptibility. Cultures from single colonies were grown in LB medium supplemented with 0.05% Tween 80 and used for MIC tests in a microtiter plate format. Starting cultures contained 200 μl of bacterial cells at an optical density of 0.025 at 600 nm, and the respective drug was added in twofold series of dilution.
(§6) Key nucleotides which distinguish the prokaryotic from the eukaryotic decoding site are 16S rRNA positions 1408 (bacterial ribosome: A, eukaryotic cytosolic ribosomes: G) and 1491 (bacterial ribosomes: G, eukaryotic cytosolic ribosomes: A, eukaryotic mitochondrial ribosome: C).

The subject of assay [2] is M. smegmatis ΔrrnB 1408G (16S rRNA position 1408 G, eukaryotic cytosolic ribosomes). In words: MIC, recombinant M. smegmatis with mutant ribosomes 1408G. The note with it: M. smegmatis ΔrrnB 1408G mutant ribosomes; 72 h at 37° C.
Excerpt: as §1, §2, §3, §4, §5, §6

Assay [3] has as its system M. smegmatis ΔrrnB 1491A (16S rRNA position 1491 A, eukaryotic cytosolic ribosomes). In words: MIC, recombinant M. smegmatis with mutant ribosomes 1491A. The note with it: M. smegmatis ΔrrnB 1491A mutant ribosomes; 72 h at 37° C.
Excerpt: as §1, §2, §3, §4, §5, §6

The subject of assay [4] is M. smegmatis ΔrrnB 1491C (16S rRNA position 1491 C, eukaryotic mitochondrial ribosome). The assay can be described thus: MIC, recombinant M. smegmatis with mutant ribosomes 1491C. The note with it: M. smegmatis ΔrrnB 1491C mutant ribosomes; 72 h at 37° C.
Excerpt: as §1, §2, §3, §4, §5, §6

The source of these data is patent US8546343B2, “Aminoglycoside antibiotics targeting bacterial 16S ribosomal RNA” (Eidgenoessische Technische Hochschule Zurich, priority 2007, dated 2013).

Regarding `NC[C@@H]1O[C@H](O[C@H]2[C@@H](O)[C@H](O[C@@H]3[C@@H](O)[C@H](N)C[C@H](N)[C@H]3O[C@H]3O[C@@H]4COC(c5cccs5)O[C@H]4[C@H](O)[C@H]3N)O[C@@H]2CO)[C@H](N)[C@@H](O)[C@@H]1O` (stereo partly drawn) [Compound 5.22, 4′,6′-O-2-Thiophenylideneparomomycin], the “minimal inhibitory concentrations ΔrrnB” value in assay [1] was 8 to 16 µg/mL. Also, in assay [2], the “minimal inhibitory concentrations ΔrrnB 1408G” value is over 512 µg/mL. Also, the “minimal inhibitory concentrations ΔrrnB 1491A” value in assay [3] is over 512 µg/mL. Besides, in assay [4], the “minimal inhibitory concentrations ΔrrnB 1491C” value was over 512 µg/mL.

With `COc1cc([C@@H]2OC[C@H]3O[C@H](O[C@H]4[C@H](O[C@@H]5O[C@H](CO)[C@@H](O[C@H]6O[C@@H](CN)[C@@H](O)[C@H](O)[C@H]6N)[C@H]5O)[C@@H](O)[C@H](N)C[C@@H]4N)[C@H](N)[C@@H](O)[C@@H]3O2)cc(OC)c1OC` [Compound 5.14, 4′,6′-O-3,4,5-Trimethoxybenzylideneparomomycin], in assay [1], the “minimal inhibitory concentrations ΔrrnB” value lay within 32 to 64 µg/mL. Further, in assay [2], the “minimal inhibitory concentrations ΔrrnB 1408G” value was over 512 µg/mL. Besides, in assay [3], the “minimal inhibitory concentrations ΔrrnB 1491A” value is over 512 µg/mL. Further, the “minimal inhibitory concentrations ΔrrnB 1491C” value in assay [4] is over 512 µg/mL.

In the case of `COc1ccccc1[C@@H]1OC[C@H]2O[C@H](O[C@H]3[C@H](O[C@@H]4O[C@H](CO)[C@@H](O[C@H]5O[C@@H](CN)[C@@H](O)[C@H](O)[C@H]5N)[C@H]4O)[C@@H](O)[C@H](N)C[C@@H]3N)[C@H](N)[C@@H](O)[C@@H]2O1` [Compound 5.4, 4,6′-O-o-Methoxybenzylideneparomomycin], the “minimal inhibitory concentrations ΔrrnB” value in assay [1] is 8 to 16 µg/mL. The “minimal inhibitory concentrations ΔrrnB 1408G” value in assay [2] was over 512 µg/mL. Moreover, in assay [3], the “minimal inhibitory concentrations ΔrrnB 1491A” value is over 512 µg/mL. The “minimal inhibitory concentrations ΔrrnB 1491C” value in assay [4] was over 512 µg/mL.

Regarding `COc1ccc(OC)c(C2OC[C@H]3O[C@H](O[C@H]4[C@H](O[C@@H]5O[C@H](CO)[C@@H](O[C@H]6O[C@@H](CN)[C@@H](O)[C@H](O)[C@H]6N)[C@H]5O)[C@@H](O)[C@H](N)C[C@@H]4N)[C@H](N)[C@@H](O)[C@@H]3O2)c1` (stereo partly drawn) [Compound 5.5, 4′,6′-O-2,5-Dimethoxybenzylideneparomomycin], the “minimal inhibitory concentrations ΔrrnB” value in assay [1] was 4 to 8 µg/mL. The “minimal inhibitory concentrations ΔrrnB 1408G” value in assay [2] was “≧512 μg/ml”. For the same molecule, in assay [3], the “minimal inhibitory concentrations ΔrrnB 1491A” value was over 512 µg/mL. Besides, the “minimal inhibitory concentrations ΔrrnB 1491C” value in assay [4] was over 512 µg/mL.

On to `COc1cc(OC)cc([C@@H]2OC[C@H]3O[C@H](O[C@H]4[C@H](O[C@@H]5O[C@H](CO)[C@@H](O[C@H]6O[C@@H](CN)[C@@H](O)[C@H](O)[C@H]6N)[C@H]5O)[C@@H](O)[C@H](N)C[C@@H]4N)[C@H](N)[C@@H](O)[C@@H]3O2)c1` [Compound 5.13, 4′,6′-O-3,5-Dimethoxybenzylideneparomomycin], for which the “minimal inhibitory concentrations ΔrrnB” value in assay [1] came to 32 µg/mL. Moreover, the “minimal inhibitory concentrations ΔrrnB 1408G” value in assay [2] is over 512 µg/mL. For the same molecule, the “minimal inhibitory concentrations ΔrrnB 1491A” value in assay [3] was over 512 µg/mL. The “minimal inhibitory concentrations ΔrrnB 1491C” value in assay [4] was over 512 µg/mL.

On to `CN(C)c1ccc([C@@H]2OC[C@H]3O[C@H](O[C@H]4[C@H](O[C@@H]5O[C@H](CO)[C@@H](O[C@H]6O[C@@H](CN)[C@@H](O)[C@H](O)[C@H]6N)[C@H]5O)[C@@H](O)[C@H](N)C[C@@H]4N)[C@H](N)[C@@H](O)[C@@H]3O2)cc1` [Compound 5.18, 4′,6′-O-p-Dimethylaminobenzylideneparomomycin], for which the “minimal inhibitory concentrations ΔrrnB” value in assay [1] lay within 2 to 4 µg/mL. For the same molecule, the “minimal inhibitory concentrations ΔrrnB 1408G” value in assay [2] was 256 to 512 µg/mL. Further, the “minimal inhibitory concentrations ΔrrnB 1491A” value in assay [3] is 256 µg/mL. In addition, in assay [4], the “minimal inhibitory concentrations ΔrrnB 1491C” value is over 512 µg/mL.

For the molecule `NC[C@@H]1O[C@H](O[C@H]2[C@@H](O)[C@H](O[C@@H]3[C@@H](O)[C@H](N)C[C@H](N)[C@H]3O[C@H]3O[C@@H]4CO[C@@H](c5cccc(Cl)c5)O[C@H]4[C@H](O)[C@H]3N)O[C@@H]2CO)[C@H](N)[C@@H](O)[C@@H]1O` [Compound 5.15, 4′,6′-O-m-chlorobenzylideneparomomycin], the “minimal inhibitory concentrations ΔrrnB” value in assay [1] was in the range of 2 to 4 µg/mL. Also, in assay [2], the “minimal inhibitory concentrations ΔrrnB 1408G” value was in the range of 256 to 512 µg/mL. The “minimal inhibitory concentrations ΔrrnB 1491A” value in assay [3] worked out at 512 µg/mL. Besides, in assay [4], the “minimal inhibitory concentrations ΔrrnB 1491C” value worked out at 512 µg/mL.

As to `NC[C@@H]1O[C@H](O[C@H]2[C@@H](O)[C@H](O[C@@H]3[C@@H](O)[C@H](N)C[C@H](N)[C@H]3O[C@H]3O[C@H](CN)[C@@H](O)[C@H](O)[C@H]3N)O[C@@H]2CO)[C@H](N)[C@@H](O)[C@@H]1O` [Neomycin B, reference compound], the “minimal inhibitory concentrations ΔrrnB” value in assay [1] fell in the range of 0.5 to 1 µg/mL. In addition, the “minimal inhibitory concentrations ΔrrnB 1408G” value in assay [2] was over 512 µg/mL. In assay [3], the “minimal inhibitory concentrations ΔrrnB 1491A” value was found to be 4 µg/mL. In assay [4], the “minimal inhibitory concentrations ΔrrnB 1491C” value was 16 to 32 µg/mL.

Turning to `NC[C@@H]1O[C@H](O[C@H]2[C@@H](O)[C@H](O[C@@H]3[C@@H](O)[C@H](N)C[C@H](N)[C@H]3O[C@H]3O[C@@H]4CO[C@@H](Cc5ccccc5)O[C@H]4[C@H](O)[C@H]3N)O[C@@H]2CO)[C@H](N)[C@@H](O)[C@@H]1O` [Compound 5.24], the “minimal inhibitory concentrations ΔrrnB” value in assay [1] was found to be 64 µg/mL. In addition, the “minimal inhibitory concentrations ΔrrnB 1408G” value in assay [2] was 256 µg/mL. In assay [3], the “minimal inhibitory concentrations ΔrrnB 1491A” value was found to be 256 µg/mL. The “minimal inhibitory concentrations ΔrrnB 1491C” value in assay [4] fell in the range of 128 to 256 µg/mL.

For `CC1OC[C@H]2O[C@H](O[C@H]3[C@H](O[C@@H]4O[C@H](CO)[C@@H](O[C@H]5O[C@@H](CN)[C@@H](O)[C@H](O)[C@H]5N)[C@H]4O)[C@@H](O)[C@H](N)C[C@@H]3N)[C@H](N)[C@@H](O)[C@@H]2O1` (stereo partly drawn) [Compound 5.23, 4′,6′-O-Ethylideneparomomycin], the “minimal inhibitory concentrations ΔrrnB” value in assay [1] came to 32 µg/mL. For the same molecule, the “minimal inhibitory concentrations ΔrrnB 1408G” value in assay [2] was over 512 µg/mL. Moreover, the “minimal inhibitory concentrations ΔrrnB 1491A” value in assay [3] is over 512 µg/mL. Besides, in assay [4], the “minimal inhibitory concentrations ΔrrnB 1491C” value is over 512 µg/mL.

Consider `COc1ccc([C@@H]2OC[C@H]3O[C@H](O[C@H]4[C@H](O[C@@H]5O[C@H](CO)[C@@H](O[C@H]6O[C@@H](CN)[C@@H](O)[C@H](O)[C@H]6N)[C@H]5O)[C@@H](O)[C@H](N)C[C@@H]4N)[C@H](N)[C@@H](O)[C@@H]3O2)cc1` [Compound 5.2, 4′,6′-O-p-Methoxybenzylideneparomomycin], for which the “minimal inhibitory concentrations ΔrrnB” value in assay [1] was determined as 4 µg/mL. Further, the “minimal inhibitory concentrations ΔrrnB 1408G” value in assay [2] was over 512 µg/mL. Further, the “minimal inhibitory concentrations ΔrrnB 1491A” value in assay [3] is over 512 µg/mL. Moreover, in assay [4], the “minimal inhibitory concentrations ΔrrnB 1491C” value was over 512 µg/mL.

As to `NC[C@@H]1O[C@H](O[C@H]2[C@@H](O)[C@H](O[C@@H]3[C@@H](O)[C@H](N)C[C@H](N)[C@H]3O[C@H]3O[C@@H]4CO[C@@H](c5cc(Cl)cc(Cl)c5)O[C@H]4[C@H](O)[C@H]3N)O[C@@H]2CO)[C@H](N)[C@@H](O)[C@@H]1O` [Compound 5.9, 4,6′-O-3,5-Dichlorobenzylideneparomomycin], the “minimal inhibitory concentrations ΔrrnB” value in assay [1] was 4 µg/mL. Moreover, in assay [2], the “minimal inhibitory concentrations ΔrrnB 1408G” value fell in the range of 128 to 256 µg/mL. In assay [3], the “minimal inhibitory concentrations ΔrrnB 1491A” value was 128 to 256 µg/mL. In assay [4], the “minimal inhibitory concentrations ΔrrnB 1491C” value was determined as 128 µg/mL.
